Measurements from publication PMC11469493, “Luteolin target HSPB1 regulates endothelial cell ferroptosis to protect against radiation vascular injury” (PLOS ONE, 2024).

How the values were obtained:
HSPB1 [1] = target: T1, HSPB1 (Homo sapiens, UniProt P04792); assay: SPR (Reichert 4SPR, immobilised HSPB1); assay type: binding; parameters: protein immobilised by EDC/NHS on dextran SPR chip; settings: read-out: affinity
HSPB1 [2] = target: T1, HSPB1; assay: DARTS with Western blot (protection from protease); assay type: biochemical; parameters: endogenous protein in lysate, detected by Western blot after protease digestion (DARTS); settings: cell lysate, room temperature, 20 min with luteolin, protease digestion 15 min

T1 sequence (P04792 whole entry): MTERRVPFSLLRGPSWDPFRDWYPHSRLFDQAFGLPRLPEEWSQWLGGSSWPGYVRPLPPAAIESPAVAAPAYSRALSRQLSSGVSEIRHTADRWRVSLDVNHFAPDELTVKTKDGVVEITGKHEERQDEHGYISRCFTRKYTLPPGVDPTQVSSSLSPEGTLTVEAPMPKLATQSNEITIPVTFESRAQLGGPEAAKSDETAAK

Kd (HSPB1 [1]): 23.7 µM
Structure (SMILES): O=c1cc(-c2ccc(O)c(O)c2)oc2cc(O)cc(O)c12 [luteolin]
DARTS with Western blot (protection from protease) (HSPB1 [2]): addition of luteolin under the same protease concentration conditions reduced the hydrolysis of HSPB1
